Assay results as given in patent publication US7453009B2, “Hydroxybiphenyl carboxylic acids and derivatives, method for producing the same and their use” (Sanofi-Aventis Deutschland GmbH, priority 2004, dated 2008).

Target: T1, recombinant hPTP1B (phosphotyrosine phosphatase 1B) (Homo sapiens, UniProt P18031)
T1 construct: but without the carboxy-terminal hydrophobic region (corresponding to 1-299 aa); made in house; host or cells: Sf9 insect cells (baculovirus, Bac-to-Bac, pFASTBAC)
T1 sequence (P18031 1-299): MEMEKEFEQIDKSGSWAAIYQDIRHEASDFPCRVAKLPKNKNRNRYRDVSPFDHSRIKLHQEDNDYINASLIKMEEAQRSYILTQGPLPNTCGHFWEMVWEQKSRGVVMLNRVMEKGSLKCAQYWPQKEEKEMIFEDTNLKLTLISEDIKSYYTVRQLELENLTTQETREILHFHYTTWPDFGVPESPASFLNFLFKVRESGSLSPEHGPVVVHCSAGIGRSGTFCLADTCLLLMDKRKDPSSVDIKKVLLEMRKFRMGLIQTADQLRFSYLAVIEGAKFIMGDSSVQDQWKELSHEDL
Experiment: Enzymatic test for inhibition of a phosphatase (phosphopeptide dephosphorylation / p-nitrophenyl phosphate cleavage)
Assay type: biochemical
Details: Table 3 Biological activity; inhibition of PTP1B; table does not say which substrate format (A phosphopeptide or B pNPP)
Procedure: Enzymatic Test Systems for Detecting Inhibition of a Phosphatase
The compounds of the formula I were tested for their phosphatase-inhibiting effect in an in vitro assay. The enzyme preparation and the performance of the assay was carried out as follows.
A) Cell Culture: • Sf9 cells (=Spodoptera frugiperda cell type; obtainable from invitrogen) are cultured in Grace's supplemented medium (Gibco-BRL) with 10% heat-inactivated fetal calf serum (Gibco-BRL) in spinner flasks at 28° C. in accordance with the protocol of Summers and Smith (A Manual for Methods for Baculovirus Vectors and Insect Culture Procedures [Bulletin No. 15555]. Texas A & M University, Texas Agricultural Experiment Station, College Station, Tex., 1987). • Construction of recombinant Baculovirus transfer vectors: cDNA coding for the regulatory and catalytic domains of human PTP1B, but without the carboxy-terminal hydrophobic region (corresponding to 1-299 aa) was obtained by polymerase chain reaction via primers with attached cloning sites and suitable cDNA templates (obtainable for example from invitrogen) and then cloned into baculovirus expression vectors (Amersham Pharmacia Biotech.). The recombinant baculoviruses were prepared with the aid of the Bac-to-Bac baculovirus expression system (obtainable from Gibco-BRL). The gene was cloned into the pFASTBAC donor plasmid (obtainable from Life Technologies). The resulting plasmid was transformed into competent DH10BAC Escherichia coli cells (obtainable from Life Technologies). After transposition and antibiotic selection, the recombinant plasmid DNA was isolated from selected E. coli colonies and then used for the transfection of Sf9 insect cells. The virus particle in the supernatant medium was amplified three times up to a viral stock volume of 500 ml.
B) Production of Recombinant Protein: • Baculovirus infection of a 500 ml spinner culture of Sf9 cells was essentially carried out as described by Summers and Smith (see above). Sf9 cells at a density of 1-3×10^6 cells/ml were pelleted by centrifugation at 300 g for 5 min, the supernatant was removed, and the cells were resuspended in a density of 1×10^7 cells/ml in a suitable recombinant viral stock (MOI 10). After careful shaking at room temperature for 1.5 h, fresh medium was added in order to achieve a cell density of 1×10^6 cells/ml. The cells were then cultured in the suspension at 28° C. for suitable periods after postinfection.
C) Cellular Fractionation and Complete Cell Extracts of Infected Sf9 Cells: • After the postinfection, aliquots were subjected to an analysis of protein expression by SDS-PAGE and Western blot analysis. The cellular fractionation was carried out as described (Cromlish, W. and Kennedy, B. Biochem. Pharmacol. 52: 1777-1785, 1996). Complete cell extracts were obtained from 1 ml aliquots of the infected Sf9 cells after certain times postinfection. The pelleted cells (300×g, 5 min) were washed once in phosphate-buffered saline (4° C.), resuspended in 50 μl of water and disrupted by repeated freezing/thawing. Protein concentrations were determined with the aid of the Bradford method and bovine serum albumin as standard.
A) Dephosphorylation of a Phosphopeptide: • This assay is based on the release of phosphate from a consensus substrate peptide which is detected in the nanomolar concentration range by the malachite green/ammonium molybdate method (Lanzetta, P. A., Alvarez, L. J., Reinach, P. S., Candia, O. A. Anal Biochem. 100: 95-97, 1979) adapted for the microtiter plate format. The dodecatrisphosphopeptide TRDIYETDYYRK (Biotrend, Cologne) corresponds to amino acids 1142-1153 of the catalytic domain of the insulin receptor and is (auto)phosphorylated on tyrosine residues 1146, 1150 and 1151. […]

| IC50 | Structure (SMILES) |
| --- | --- |
| 1450 nM | O=C(O)c1cc(-c2ccc(CN(Cc3ccc(F)cc3)C(=O)/C=C/c3ccccc3)cc2)ccc1O [Example 18, 4′-{[(4-Fluorobenzyl)-(3-phenylacryloyl)amino]methyl}-4-hydroxybiphenyl-3-carboxylic acid] |
| 1500 nM | O=C(O)c1cc(-c2ccc(CN(Cc3ccccc3)C(=O)c3ccc4c(c3)OCO4)cc2)ccc1O [Example 3, 4′-{[(Benzo[1,3]dioxole-5-carbonyl)benzylamino]methyl}-4-hydroxybiphenyl-3-carboxylic acid] |
| 1400 nM | COc1cccc(C(=O)N(Cc2ccc(-c3ccc(O)c(C(=O)O)c3)cc2)Cc2ccccc2OC)c1 [Example 4, 4-Hydroxy-4′-{[(3-methoxybenzoyl)-(2-methoxybenzyl)amino]-methyl}biphenyl-3-carboxylic acid] |
| 1600 nM | COc1cccc(C(=O)N(Cc2ccccc2)Cc2ccc(-c3ccc(O)c(C(=O)O)c3)cc2)c1 [Example 12, 4′-{[Benzyl-(3-methoxybenzoyl)amino]methyl}-4-hydroxybiphenyl-3-carboxylic acid] |
| 1000 nM | Cc1ccc(CN(Cc2ccc(-c3ccc(O)c(C(=O)O)c3)cc2)C(=O)c2ccc(Br)cc2)cc1 [Example 7, 4′-{[(4-Bromobenzoyl)-(4-methylbenzyl)amino]methyl}-4-hydroxybiphenyl-3-carboxylic acid] |
| 1200 nM | COc1ccc(CN(Cc2ccc(-c3ccc(O)c(C(=O)O)c3)cc2)C(=O)c2ccc3c(c2)OCO3)cc1 [Example 2, 4′-{[(Benzo[1,3]dioxole-5-carbonyl)-(4-methoxybenzyl)amino]-methyl}-4-hydroxybiphenyl-3-carboxylic acid] |
| 1300 nM | COc1ccccc1CN(Cc1ccc(-c2ccc(O)c(C(=O)O)c2)cc1)C(=O)C1CCCCC1 [Example 6, 4′-{[Cyclohexanecarbonyl-(2-methoxybenzyl)amino]methyl}-4-hydroxybiphenyl-3-carboxylic acid] |
| 1700 nM | COc1cccc(C(=O)N(Cc2ccc(C)cc2)Cc2ccc(-c3ccc(O)c(C(=O)O)c3)cc2)c1 [Example 13, 4-Hydroxy-4′-{[(3-methoxybenzoyl)-(4-methylbenzyl)amino]methyl}-biphenyl-3-carboxylic acid] |
| 1900 nM | O=C(O)c1cc(-c2ccc(CN(Cc3ccc(F)cc3)C(=O)c3ccc4c(c3)OCO4)cc2)ccc1O [Example 16, 4′-{[(Benzo[1,3]dioxole-5-carbonyl)-(4-fluorobenzyl)amino]methyl}-4-hydroxy-biphenyl-3-carboxylic acid] |
| 1200 nM | COc1ccccc1CN(Cc1ccc(-c2ccc(O)c(C(=O)O)c2)cc1)C(=O)c1ccc(Br)cc1 [Example 1, 4′-{[(4-Bromobenzoyl)-(2-methoxybenzyl)amino]methyl}-4-hydroxybiphenyl-3-carboxylic acid] |
| 500 nM | O=C(O)c1cc(-c2ccc(CN(Cc3ccc(F)cc3)C(=O)c3ccc(Br)cc3)cc2)ccc1O [Example 23, 4′-{[(4-Bromobenzoyl)-(4-fluorobenzyl)amino]methyl}-4-hydroxybiphenyl-3-carboxylic acid] |
| 1900 nM | CCCCC(=O)N(Cc1ccc(-c2ccc(O)c(C(=O)O)c2)cc1)CC1CC1 [Example 8, 4′-[(Cyclopropylmethylpentanoylamino)methyl]-4-hydroxybiphenyl-3-carboxylic acid] |
| 1600 nM | O=C(O)c1cc(-c2ccc(CN(CCc3ccccc3)C(=O)c3ccc4c(c3)OCO4)cc2)ccc1O [Example 11, 4′-{[(Benzo[1,3]dioxole-5-carbonyl)phenethylamino]methyl}-4-hydroxybiphenyl-3-carboxylic acid] |
| 1800 nM | O=C(O)c1cc(-c2ccc(CN(C(=O)c3ccc4c(c3)OCO4)C3CCCC3)cc2)ccc1O [Example 20, 4′-{[(Benzo[1,3]dioxole-5-carbonyl)cyclopentylamino]methyl}-4-hydroxy-biphenyl-3-carboxylic acid] |
| 1600 nM | O=C(O)c1cc(-c2ccc(CN(CC3CC3)C(=O)C3CCCCC3)cc2)ccc1O [Example 5, 4′-[(Cyclohexanecarbonylcyclopropylmethylamino)methyl]-4-hydroxybiphenyl-3-carboxylic acid] |
| 1600 nM | COc1cccc(C(=O)N(Cc2ccc(F)cc2)Cc2ccc(-c3ccc(O)c(C(=O)O)c3)cc2)c1 [Example 17, 4′-{[(4-Fluorobenzyl)-(3-methoxybenzoyl)amino]methyl}-4-hydroxybiphenyl-3-carboxylic acid] |
| 600 nM | O=C(O)c1cc(-c2ccc(CN(Cc3ccccc3)C(=O)c3ccc(Br)cc3)cc2)ccc1O [Example 21, 4′-{[Benzyl-(4-bromobenzoyl)amino]methyl}-4-hydroxybiphenyl-3-carboxylic acid] |
| 1280 nM | Cc1ccc(CN(Cc2ccc(-c3ccc(O)c(C(=O)O)c3)cc2)C(=O)c2ccc3c(c2)OCO3)cc1 [Example 19, 4′-{[(Benzo[1,3]dioxole-5-carbonyl)-(4-methylbenzyl)amino]methyl}-4-hydroxy-biphenyl-3-carboxylic acid] |
| 1800 nM | O=C(O)c1cc(-c2ccc(CN(CC3CC3)C(=O)c3ccc4c(c3)OCO4)cc2)ccc1O [Example 14, 4′-{[(Benzo[1,3]dioxole-5-carbonyl)cyclopropylmethylamino]methyl}-4-hydroxybiphenyl-3-carboxylic acid] |
| 600 nM | CCCCC(=O)N(Cc1ccc(OC)cc1)Cc1ccc(-c2ccc(O)c(C(=O)O)c2)cc1 [Example 24, 4-Hydroxy-4′-{[(4-methoxybenzyl)pentanoylamino]methyl}-biphenyl-3-carboxylic acid] |
| 1600 nM | Cc1ccc(CN(Cc2ccc(-c3ccc(O)c(C(=O)O)c3)cc2)C(=O)C2CCCCC2)cc1 [Example 10, 4′-{[Cyclohexanecarbonyl-(4-methylbenzyl)amino]methyl}-4-hydroxybiphenyl-3-carboxylic acid] |
| 1300 nM | O=C(O)c1cc(-c2ccc(CN(Cc3ccccc3)C(=O)c3ccco3)cc2)ccc1O [Example 22, 4′-{[Benzyl(furan-2-carbonyl)amino]methyl}-4-hydroxybiphenyl-3-carboxylic acid] |
| 1500 nM | CCCCCN(Cc1ccc(-c2ccc(O)c(C(=O)O)c2)cc1)C(=O)c1ccc2c(c1)OCO2 [Example 15, 4′-{[(Benzo[1,3]dioxole-5-carbonyl)pentylamino]methyl}-4-hydroxybiphenyl-3-carboxylic acid] |
